Measured values from patent US20240173295A1, “A STABLE, EMULSION-FORMING LIQUID COMPOSITION COMPRISING AMINO ACIDS” (Brain Luxury Inc., priority 2021, published 2024).
Where two headings read alike, the source gives them in different places. Marks after values point to notes of the source that are not given here.

Assay: Chemical stability of liquid composition on storage
Assay type: physicochemical
Protocol: The chemical stability of a disclosed liquid composition stored at 6° C. or 22° C. was evaluated at 2 months and three months. The microbial stability and shelf life was also evaluated. A liquid composition having a pH of about 3.7 was subjected to high pressure processing at 6000 bar for two cycles of 5 minutes.

[1] = stored at 6° C. or 22° C., adjusted for slightly lower oil volume in 3 months preparation (55 ml vs 60 ml)

Molecule	amount in liquid composition at 2 Months (chemical stability) (stored at 6° C. or 22° C.)	amount in liquid composition at 3 Months (chemical stability) (stored at 6° C. or 22° C.) [mg/60 mL]	amount in liquid composition at 3 Months (chemical stability) [1]	amount in liquid composition at 2 Months (chemical stability) [mg/60 mL]	amount in liquid composition at 3 Months (chemical stability)
NCC(=O)O [Glycine]	3319 mg/60 mL	3303			
O=C1O[C@H]([C@@H](O)CO)C(O)=C1O [Vitamin C]	326 mg/60 mL	245			
Vitamin E		2.2			
[Na] [Sodium]	1.23 mg/60 mL	0.6			
CC/C=C\C/C=C\C/C=C\C/C=C\C/C=C\CCCC(=O)O [eicosapentaenoic acid]	319 mg/60 mL		297* mg/60 mL		
[Zn] [Zinc]	6 mg/60 mL	5.7			
[Mg+2] [Magnesium]				15	27.8 mg/60 mL
N[C@@H](Cc1c[nH]c2ccccc12)C(=O)O [L-Tryptophan]	420 mg/60 mL	426			
docosapenataenoic acid	632 mg/60 mL		587* mg/60 mL		
Vitamin D	25 mcg/60 mL		26* mcg/60 mL		
CC/C=C\C/C=C\C/C=C\CCCCCCCC(=O)O [alpha linoleic acid]				1026	1025* mg/60 mL
Medium chain triglycerides				2209	2407* mg/60 mL
